Experimental data from patent publication US4950647A, “T cell immunopotentiator” (Nucleic Acid Research Institute, priority 1988, dated 1990).

Experiments:
[1] = system: human mixed lymphocyte culture; experiment: Mixed lymphocyte response / culture (alloantigens); type: cell-based
Method: (§1) Peripheral blood mononuclear cells were isolated from heparinized peripheral blood of normal healthy donors as described in Sharma, B. and S. Gupta, "Antigen-specific primary cytotoxic T lymphocyte response in acquired immune deficiency syndrome (AIDS) and AIDS related complex", Clin. Exp. Immunol., 62:296, 1985. Briefly, blood was diluted 1:1 with Hanks balanced salt solution (HBSS). Peripheral blood mononuclear cells were separated on a Ficoll-Hypaque gradient. The peripheral blood mononuclear cells recovered from the interface were washed three times with HBSS and resuspended in RPMI-1640 containing 100 U/ml penicillin, 100 μg/ml streptomycin 2mM L-glutamine (GIBCO, Grand Island, N.Y.), and 10% heat-inactivated pooled A serum (Irvine Scientific, Irvine, Calif.), hereafter referred as complete medium (CM).
Peripheral blood mononuclear cells (1×10^5 /0.2 ml/well) from donor-A were cultured together with different numbers of peripheral blood mononuclear cells ([…]) of peripheral blood mononuclear cells from the other donor for 96 hr as previously described above for the lymphocyte response to plant mitogens. Cultures were pulsed with [^3 H]-thymidinefor additional 16 hrs.

[2] = system: human lymphocytes (peripheral blood mononuclear cells); experiment: Concanavalin A (Con A) induced lymphocyte proliferation; type: cell-based; design: 3H-thymidine incorporation in Con A-stimulated cultures: unit not given here
Method: as §1
The ability of the compound 6-amino-(2-deoxy-α-D-erythropentofuranosyl)-imidazo[4,5,-C]pyridin-4-one to modulate lymphocyte response to plant mitogens was determined by the modified procedure of Sharma, B., O. Kohashi, M. R. Mickey, and P. T. Terasaki, "Effect of water soluble adjuvants on in vitro lymphocyte immunization", Cancer Res. 35:666, 1975. Peripheral blood mononuclear cells were cultured for 72-96 hr with phytohemagglutinin (Difco, Detroit, Mich.), Concanavalin A (Calbiochem, Calif.) or Pokeweed mitogen (GIBCO, Grand Island, N.Y.) in the presence and absence of 6-amino-(2-deoxy-α-D-erythro-pentofuranosyl)-imidazo[4,5,-C]pyridin- 4-one. The culture were set up in quadruplicate and pulsed with [^3 H]-thymidine for 16 hr and the [^3 H] thymidine incorporation was determined.
Peripheral blood mononuclear cells were cultured with different concentrations of Concanavalin A in the presence and absence of 6-amino-(2-deoxy-α-D-erythro-pentofuranosyl)-imidazo[4,5,-C]pyridin- 4-one. Lymphocyte proliferation was determined by ^3 H-thymidine incorporation.

[3] = donor 1, Con A 0.25 mg/0.2 ml, compound (0.05)
[4] = donor 1, Con A 1.0 mg/0.2 ml, compound (0.006)
[5] = donor 1, Con A 4.0 mg/0.2 ml, compound (0.038)
[6] = donor 2, Con A 0.13 mg/0.2 ml, compound (0.2)
[7] = donor 2, Con A 0.13 mg/0.2 ml, compound (0.4)
[8] = donor 2, Con A 0.25 mg/0.2 ml, compound (0.2)
[9] = donor 2, Con A 0.25 mg/0.2 ml, compound (0.4)
[10] = donor 2, Con A 2.0 mg/0.2 ml, compound (0.025)
[11] = donor 3, Con A 0.13 mg/0.2 ml, compound (0.0125)
[12] = donor 3, Con A 0.13 mg/0.2 ml, compound (0.4)
[13] = donor 3, Con A 0.25 mg/0.2 ml, compound (0.05)
[14] = donor 3, Con A 0.25 mg/0.2 ml, compound (0.4)
[15] = donor 3, Con A 2.0 mg/0.2 ml, compound (0.05)
[16] = donor 3, Con A 2.0 mg/0.2 ml, compound (O.4)
[17] = donor 4, Con A 0.05 mg/0.2 ml, compound (0.025)
[18] = donor 4, Con A 0.13 mg/0.2 ml, compound (0.05)
[19] = donor 4, Con A 0.25 mg/0.2 ml, compound (0.05)
[20] = donor 5, Con A 0.5 mg/0.2 ml, compound (0.05)
[21] = donor 5, Con A 2.0 mg/0.2 ml, compound (0.025)

`Nc1cc2c(ncn2[C@@H]2C[C@H](O)[C@@H](CO)O2)c(O)n1` [Test Compound, 6-amino-1-(2-deoxy-α-D-erythro-pentofuranosyl)imidazo[4,5-C]-pyridin-4-one] was tested, and the “3H-thymidine incorporation in MLC” value ([1]; A + B (2 × 10^5), 0.2 mM) was 29209 ± 2804 CPM, the “3H-thymidine incorporation in MLC” value ([1]; A + B (2 × 10^5), 0.4 mM) was 27940 ± 3679 CPM and the “3H-thymidine incorporation in MLC” value ([1]; B + A (0.5 × 10^5), 0.0125 mM) was 17045 ± 982 CPM. The “3H-thymidine incorporation in MLC” value ([1]; B + A (0.5 × 10^5), 0.025 mM) was 19538 ± 3053 CPM, the “3H-thymidine incorporation in MLC” value ([1]; B + A (0.5 × 10^5), 0.05 mM) was 20799 ± 1068 CPM and the “3H-thymidine incorporation in MLC” value ([1]; B + A (0.5 × 10^5), 0.2 mM) was 19346 ± 20799 CPM. The “3H-thymidine incorporation in MLC” value ([1]; B + A (0.5 × 10^5), 0.4 mM) was 13779 ± 3043 CPM, the “3H-thymidine incorporation in MLC” value ([1]; B + A (2 × 10^5), 0.0125 mM) was 18538 ± 1601 CPM and the “3H-thymidine incorporation in MLC” value ([1]; B + A (2 × 10^5), 0.025 mM) was 22129 ± 3893 CPM. For the same compound, the “3H-thymidine incorporation in MLC” value ([1]; B + A (2 × 10^5), 0.05 mM) was 24362 ± 2936 CPM, the “3H-thymidine incorporation in MLC” value ([1]; B + A (2 × 10^5), 0.2 mM) was 27737 ± 2105 CPM and the “3H-thymidine incorporation in MLC” value ([1]; B + A (2 × 10^5), 0.4 mM) was 28986 ± 1448 CPM. For the same compound, the “increase in lymphocyte response to Concanavalin A” value [2] was “marked increase”, the “mean increase of Con A response” value ([2]; Table IV) was 109% and the “suppressive effect on Con A response” value ([2]; Table IV) was “slight suppressive effect in only one case”. For the same compound, the “3H-thymidine incorporation in Con A-stimulated cultures” value [2, 3] was 49279 ± 2732, the “% Potentiation” value [2, 3] was 32% and the “3H-thymidine incorporation in Con A-stimulated cultures” value [2, 4] was 71105 ± 4015. The “% Potentiation” value [2, 4] was 34%, the “3H-thymidine incorporation in Con A-stimulated cultures” value [2, 5] was 99322 ± 8655 and the “% Potentiation” value [2, 5] was 43%. For the same compound, the “3H-thymidine incorporation in Con A-stimulated cultures” value [2, 6] was 18607 ± 2157, the “% Potentiation” value [2, 6] was 318% and the “3H-thymidine incorporation in Con A-stimulated cultures” value [2, 7] was 31068 ± 2678. For the same compound, the “% Potentiation” value [2, 7] was 599%, the “3H-thymidine incorporation in Con A-stimulated cultures” value [2, 8] was 44958 ± 2248 and the “% Potentiation” value [2, 8] was 203%. The “3H-thymidine incorporation in Con A-stimulated cultures” value [2, 9] was 48354 ± 3336, the “% Potentiation” value [2, 9] was 226% and the “3H-thymidine incorporation in Con A-stimulated cultures” value [2, 10] was 162317 ± 10872. For the same compound, the “% Potentiation” value [2, 10] was 29%, the “3H-thymidine incorporation in Con A-stimulated cultures” value [2, 11] was 29693 ± 4998 and the “% Potentiation” value [2, 11] was 50%. For the same compound, the “3H-thymidine incorporation in Con A-stimulated cultures” value [2, 12] was 39902 ± 2918, the “% Potentiation” value [2, 12] was 102% and the “3H-thymidine incorporation in Con A-stimulated cultures” value [2, 13] was 57780 ± 9762. For the same compound, the “% Potentiation” value [2, 13] was 36%, the “3H-thymidine incorporation in Con A-stimulated cultures” value [2, 14] was 51010 ± 3861 and the “% Potentiation” value [2, 14] was 20%. For the same compound, the “3H-thymidine incorporation in Con A-stimulated cultures” value [2, 15] was 122692 ± 3643, the “% Potentiation” value [2, 15] was 12% and the “3H-thymidine incorporation in Con A-stimulated cultures” value [2, 16] was 98613 ± 4737. The “% Potentiation” value [2, 16] was -11%, the “3H-thymidine incorporation in Con A-stimulated cultures” value [2, 17] was 43957 ± 6053 and the “% Potentiation” value [2, 17] was 54%. For the same compound, the “3H-thymidine incorporation in Con A-stimulated cultures” value [2, 18] was 44234 ± 5027, the “% Potentiation” value [2, 18] was 110% and the “3H-thymidine incorporation in Con A-stimulated cultures” value [2, 19] was 39059 ± 5098. For the same compound, the “% Potentiation” value [2, 19] was 49%, the “3H-thymidine incorporation in Con A-stimulated cultures” value [2, 20] was 71303 ± 3633 and the “% Potentiation” value [2, 20] was 33%. The “3H-thymidine incorporation in Con A-stimulated cultures” value [2, 21] was 75046 ± 1495 and the “% Potentiation” value [2, 21] was 16%.
